Laboratory results as given in US10519152B2, “Compounds and their use in treating cancer” (AstraZeneca AB, priority 2017, dated 2019).

Molecular target: T1, Estrogen Receptor (ERα) in MCF-7 human ductal carcinoma breast cell line (Homo sapiens, UniProt P03372)
T1 construct: endogenous in cells; host or cells: MCF-7
T1 sequence (P03372 1-595): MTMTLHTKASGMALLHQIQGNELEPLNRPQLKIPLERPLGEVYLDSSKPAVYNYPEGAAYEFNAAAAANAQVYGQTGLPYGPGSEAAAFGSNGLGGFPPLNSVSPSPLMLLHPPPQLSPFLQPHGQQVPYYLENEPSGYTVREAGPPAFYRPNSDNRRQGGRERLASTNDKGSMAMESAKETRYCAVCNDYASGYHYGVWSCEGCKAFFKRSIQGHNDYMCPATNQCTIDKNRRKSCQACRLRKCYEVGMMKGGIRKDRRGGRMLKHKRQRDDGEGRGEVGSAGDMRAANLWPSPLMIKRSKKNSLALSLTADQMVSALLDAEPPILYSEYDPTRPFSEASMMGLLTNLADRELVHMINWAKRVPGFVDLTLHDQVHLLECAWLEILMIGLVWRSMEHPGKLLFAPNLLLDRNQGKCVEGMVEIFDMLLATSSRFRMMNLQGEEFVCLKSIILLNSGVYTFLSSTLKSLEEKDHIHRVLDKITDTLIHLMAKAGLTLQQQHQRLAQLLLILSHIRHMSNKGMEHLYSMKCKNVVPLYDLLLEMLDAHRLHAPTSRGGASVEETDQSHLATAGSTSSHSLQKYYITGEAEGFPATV
Assay: MCF-7 ER degradation assay (cell based immuno-fluorescence)
Conditions: MCF-7 cells; for ER degradation ≥ 90% at 0.3 μM: ER degradation by fulvestrant at 0.3 μM is defined as 100%; for DC50: 18-22 hours incubation, 50% reduction of ERα expression, single experiment or average of two or more, read-out: MCF-7 ER degradation IC50
Outline: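 MCF-7 human ductal carcinoma breast cells were seeded at 3.75×10^4 cells per mL (40 μL per well) in 384 well plates with phenol red free DMEM containing 2 mM L-Glutamine and 5% (v/v) Charcoal/Dextran treated foetal calf serum. After overnight culture, compounds were acoustically dispensed, incubated 18-22 hours, then cells were formaldehyde-fixed and immunostained for ERα.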

| SMILES | ER degradation ≥ 90% at 0.3 μM | DC50 |
| --- | --- | --- |
| Cc1ncsc1-c1ccc(CNC(=O)[C@@H]2C[C@@H](O)CN2C(=O)[C@@H](NC(=O)COCCOCCNC(=O)/C=C/c2cc(F)c([C@@H]3c4[nH]c5ccccc5c4C[C@@H](C)N3CC(C)(C)F)c(F)c2)C(C)(C)C)cc1 [Example 58, (2S,4R)-1-((S,E)-2-(tert-butyl)-15-(3,5-difluoro-4-((1R,3R)-2-(2-fluoro-2-methylpropyl)-3-methyl-2,3,4,9-tetrahydro-1H-pyrido[3,4-b]indol-1-yl)phenyl)-4,13-dioxo-6,9-dioxa-3,124-diazapentadec-4-enoyl)-4-hydroxy-N-(4-(4-methylthiazol-5-yl)benzyl)pyrrolidine-2-carboxamide, Trifluoroacetic Acid] | • | 0.4 nM |
| Cc1ncsc1-c1ccc(CNC(=O)[C@@H]2C[C@@H](O)CN2C(=O)[C@@H](NC(=O)CCCCNC(=O)/C=C/c2cc(F)c([C@@H]3c4[nH]c5ccccc5c4C[C@@H](C)N3CC(C)(C)F)c(F)c2)C(C)(C)C)cc1 [Example 60, (2S,4R)-1-((S)-2-(5-((E)-3-(3,5-difluoro-4-((1R,3R)-2-(2-fluoro-2-methylpropyl)-3-methyl-2,3,4,9-tetrahydro-1H-pyrido[3,4-b]indol-1-yl)phenyl)acrylamido)pentanamido)-3,3-dimethylbutanoyl)-4-hydroxy-N-(4-(4-methylthiazol-5-yl)benzyl)pyrrolidine-2-carboxamide, Trifluoroacetic Acid] | • | 0.5 nM |
| Cc1ncsc1-c1ccc(CNC(=O)[C@@H]2C[C@@H](O)CN2C(=O)[C@@H](NC(=O)COc2ccc(OCCNC(=O)/C=C/c3cc(F)c([C@@H]4c5[nH]c6ccccc6c5C[C@@H](C)N4CC(C)(C)F)c(F)c3)cc2)C(C)(C)C)cc1 [Example 61, (2S,4R)-1-((S)-2-(2-(4-(2-((E)-3-(3,5-difluoro-4-((1R,3R)-2-(2-fluoro-2-methylpropyl)-3-methyl-2,3,4,9-tetrahydro-1H-pyrido[3,4-b]indol-1-yl)phenyl)acrylamido)ethoxy)phenoxy)acetamido)-3,3-dimethylbutanoyl)-4-hydroxy-N-(4-(4-methylthiazol-5-yl)benzyl)pyrrolidine-2-carboxamide, Trifluoroacetic Acid] | •• | 0.7 nM |
| Cc1ncsc1-c1ccc(CNC(=O)[C@@H]2C[C@@H](O)CN2C(=O)[C@@H](NC(=O)COCCNC(=O)/C=C/c2cc(F)c([C@@H]3c4[nH]c5ccccc5c4C[C@@H](C)N3CC(C)(C)F)c(F)c2)C(C)(C)C)cc1 [Example 62, (2S,4R)-1-((S)-2-(2-(2-((E)-3-(3,5-difluoro-4-((1R,3R)-2-(2-fluoro-2-methylpropyl)-3-methyl-2,3,4,9-tetrahydro-1H-pyrido[3,4-b]indol-1-yl)phenyl)acrylamido)ethoxy)acetamido)-3,3-dimethylbutanoyl)-4-hydroxy-N-(4-(4-methylthiazol-5-yl)benzyl)pyrrolidine-2-carboxamide, Trifluoroacetic Acid] | • | 0.6 nM |
| Cc1ncsc1-c1ccc(CNC(=O)[C@@H]2C[C@@H](O)CN2C(=O)[C@@H](NC(=O)COCCOCCOCCNC(=O)/C=C/c2cc(F)c([C@@H]3c4[nH]c5ccccc5c4C[C@@H](C)N3CC(C)(C)F)c(F)c2)C(C)(C)C)cc1 [Example 63, (2S,4R)-1-((S,E)-2-(tert-butyl)-18-(3,5-difluoro-4-((1R,3R)-2-(2-fluoro-2-methylpropyl)-3-methyl-2,3,4,9-tetrahydro-1H-pyrido[3,4-b]indol-1-yl)phenyl)-4,16-dioxo-6,9,12-trioxa-3,15-diazaoctadec-17-enoyl)-4-hydroxy-N-(4-(4-methylthiazol-5-yl)benzyl)pyrrolidine-2-carboxamide, Trifluoroacetic Acid] | •• | 0.6 nM |
| Cc1ncsc1-c1ccc(CNC(=O)[C@@H]2C[C@@H](O)CN2C(=O)[C@@H](NC(=O)c2cnn(CCOCCNC(=O)/C=C/c3cc(F)c([C@@H]4c5[nH]c6ccccc6c5C[C@@H](C)N4CC(C)(C)F)c(F)c3)c2)C(C)(C)C)cc1 [Example 64, 1-(2-(2-((E)-3-(3,5-difluoro-4-((1R,3R)-2-(2-fluoro-2-methylpropyl)-3-methyl-2,3,4,9-tetrahydro-1H-pyrido[3,4-b]indol-1-yl)phenyl)acrylamido)ethoxy)ethyl)-N—((S)-1-((2S,4R)-4-hydroxy-2-((4-(4-methylthiazol-5-yl)benzyl)carbamoyl)pyrrolidin-5-yl)-3,3-dimethyl-1-oxobutan-2-yl)-1H-pyrazole-4-carboxamide, Trifluoroacetic Acid] | • | 0.5 nM |
| Cc1ncsc1-c1ccc(CNC(=O)[C@@H]2C[C@@H](O)CN2C(=O)[C@@H](NC(=O)Cc2ccc(OCCOCCNC(=O)/C=C/c3cc(F)c([C@@H]4c5[nH]c6ccccc6c5C[C@@H](C)N4CC(C)(C)F)c(F)c3)cc2)C(C)(C)C)cc1 [Example 66, (2S,4R)-1-((S)-2-(2-(4-(2-(2-((E)-3-(3,5-difluoro-4-((1R,3R)-2-(2-fluoro-2-methylpropyl)-3-methyl-2,3,4,9-tetrahydro-1H-pyrido[3,4-b]indol-1-yl)phenyl)acrylamido)ethoxy)ethoxy)phenyl)acetamido)-3,3-dimethylbutanoyl)-4-hydroxy-N-(4-(4-methylthiazol-5-yl)benzyl)pyrrolidine-2-carboxamide, Trifluoroacetic Acid] | • | 2.2 nM |
| Cc1ncsc1-c1ccc(CNC(=O)[C@@H]2C[C@@H](O)CN2C(=O)[C@@H](NC(=O)c2ccc(N3CCN(CCNC(=O)/C=C/c4cc(F)c([C@@H]5c6[nH]c7ccccc7c6C[C@@H](C)N5CC(C)(C)F)c(F)c4)CC3)cc2)C(C)(C)C)cc1 [Example 67, (2S,4R)-1-((S)-2-(4-(4-(2-((E)-3-(3,5-difluoro-4-((1R,3R)-2-(2-fluoro-2-methylpropyl)-3-methyl-2,3,4,9-tetrahydro-1H-pyrido[3,4-b]indol-1-yl)phenyl)acrylamido)ethyl)piperazin-1-yl)benzamido)-3,3-dimethylbutanoyl)-4-hydroxy-N-(4-(4-methylthiazol-5-yl)benzyl)pyrrolidine-2-carboxamide, Trifluoroacetic Acid] | • | 4.5 nM |
| Cc1ncsc1-c1ccc(CNC(=O)[C@@H]2C[C@@H](O)CN2C(=O)[C@@H](NC(=O)COCCOCCOCCOCC(=O)Nc2cc(F)c([C@@H]3c4[nH]c5ccccc5c4C[C@@H](C)N3CC(C)(C)F)c(F)c2)C(C)(C)C)cc1 [Example 68, N1-(3,5-difluoro-4-((1R,3R)-2-(2-fluoro-2-methylpropyl)-3-methyl-2,3,4,9-tetrahydro-1H-pyrido[3,4-b]indol-1-yl)phenyl)-N14-((S)-1-((2S,4R)-4-hydroxy-2-((4-(4-methylthiazol-5-yl)benzyl)carbamoyl)pyrrolidin-1-yl)-3,3-dimethyl-1-oxobutan-2-yl)-3,6,9,12-tetraoxatetradecanediamide] | •• | 6.2 nM |
| Cc1ncsc1-c1ccc(CNC(=O)[C@@H]2C[C@@H](O)CN2C(=O)[C@@H](NC(=O)COCCOCCOCCOc2cc(F)c([C@@H]3c4[nH]c5ccccc5c4C[C@@H](C)N3CC(F)(F)CO)c(F)c2)C(C)(C)C)cc1 [Example 71, (2S,4R)-1-((S)-2-(tert-Butyl)-14-(4-((1R,3R)-2-(2,2-difluoro-3-hydroxypropyl)-3-methyl-2,3,4,9-tetrahydro-1H-pyrido[3,4-b]indol-1-yl)-3,5-difluorophenoxy)-4-oxo-6,9,12-trioxa-3-azatetradecanoyl)-4-hydroxy-N-(4-(4-methylthiazol-5-yl)benzyl)pyrrolidine-2-carboxamide] | • | 0.5 nM |
| Cc1ncsc1-c1ccc(CNC(=O)[C@@H]2C[C@@H](O)CN2C(=O)[C@@H](NC(=O)COCc2cccc(CCCOc3cc(F)c([C@@H]4c5[nH]c6ccccc6c5C[C@@H](C)N4CC(C)(C)F)c(F)c3)c2)C(C)(C)C)cc1 [Example 74, (2S,4R)-1-((S)-2-(2-((3-(3-(3,5-Difluoro-4-((1R,3R)-2-(2-fluoro-2-methylpropyl)-3-methyl-2,3,4,9-tetrahydro-1H-pyrido[3,4-b]indol-1-yl)phenoxy)propyl)benzyl)oxy)acetamido)-3,3-dimethylbutanoyl)-4-hydroxy-N-(4-(4-methylthiazol-5-yl)benzyl)pyrrolidine-2-carboxamide] | •• | 14.3 nM |
